# Assay: In vitro drug release (dissolution) of codeine/chlorpheniramine resin conjugate suspension
# Assay type: physicochemical
# Procedure: The dissolution testing shown in Tables I and II was conducted using a release medium of hydrochloric acid, sodium chloride, and sodium dodecylsulfate. […] The dissolution profile for chlorpheniramine, shown in Table II, also is even and predictable, for example, at the initial testing, 42 percent dissolution of chlorpheniramine at 1 hour, 65 percent at 3 hours, 78 percent at 6 hours, and 88 percent at 12 hours.
# Further, Tables I and II show even, predictable drug release data at one and one half months, 3 months, 6 months, and 9 months, with only very minor variations. […] Thus, with aging of the product, the release profile is consistent, allowing use of the present invention in compliance with various stability requirements for pharmaceutical products.
# [1] = 1-Hour, Initial, HCl/NaCl/sodium dodecylsulfate medium
compound,measurement,setting,value
"CN(C)CCC(c1ccc(Cl)cc1)c1ccccn1 (stereo not shown) [Chlorpheniramine, chlorpheniramine]",Chlorpheniramine Release,"1-Hour, 1.5M, 4O C. aging",41%
same,Chlorpheniramine Release,"1-Hour, 3M, 4O C. aging",43%
same,Chlorpheniramine Release,"1-Hour, 3M, 25 C. aging",43%
same,Chlorpheniramine Release,"1-Hour, 6M, 4O C. aging",39%
same,Chlorpheniramine Release,"1-Hour, 6M, 25 C. aging",41%
same,Chlorpheniramine Release,"1-Hour, 9M, 25 C. aging",42%
same,Chlorpheniramine Release,[1],1-Hour 42%
same,Chlorpheniramine Release,"1-Hour, Initial, HCl/NaCl/sodium dodecylsulfate medium, listed as chlorpheniramine",42%
same,Chlorpheniramine Release,"3-Hour, 1.5M, 4O C. aging",63%
same,Chlorpheniramine Release,"3-Hour, 3M, 4O C. aging",65%
same,Chlorpheniramine Release,"3-Hour, 3M, 25 C. aging",64%
same,Chlorpheniramine Release,"3-Hour, 6M, 4O C. aging",62%
same,Chlorpheniramine Release,"3-Hour, 6M, 25 C. aging",63%
same,Chlorpheniramine Release,"3-Hour, 9M, 25 C. aging",63%
same,Chlorpheniramine Release,"3-Hour, Initial",3-Hour 65%
same,Chlorpheniramine Release,"3-Hour, Initial, listed as chlorpheniramine",65%
same,Chlorpheniramine Release,"6-Hour, 1.5M, 4O C. aging",77%
same,Chlorpheniramine Release,"6-Hour, 3M, 4O C. aging",78%
same,Chlorpheniramine Release,"6-Hour, 3M, 25 C. aging",77%
same,Chlorpheniramine Release,"6-Hour, 6M, 4O C. aging",76%
same,Chlorpheniramine Release,"6-Hour, 6M, 25 C. aging",76%
same,Chlorpheniramine Release,"6-Hour, 9M, 25 C. aging",77%
same,Chlorpheniramine Release,"6-Hour, Initial",6-Hour 78%
same,Chlorpheniramine Release,"6-Hour, Initial, listed as chlorpheniramine",78%
same,Chlorpheniramine Release,"12-Hour, 1.5M, 4O C. aging",87%
same,Chlorpheniramine Release,"12-Hour, 3M, 4O C. aging",90%
same,Chlorpheniramine Release,"12-Hour, 3M, 25 C. aging",88%
same,Chlorpheniramine Release,"12-Hour, 6M, 4O C. aging",87%
same,Chlorpheniramine Release,"12-Hour, 6M, 25 C. aging",87%
same,Chlorpheniramine Release,"12-Hour, 9M, 25 C. aging",88%
same,Chlorpheniramine Release,"12-Hour, Initial",12-Hour 88%
same,Chlorpheniramine Release,"12-Hour, Initial, listed as chlorpheniramine",88%
"COc1ccc2c3c1O[C@H]1[C@@H](O)C=C[C@H]4[C@@H](C2)N(C)CC[C@@]341 [Codeine, codeine]",Codeine Release,"1-Hour, 1.5M, 4O C. aging",55%
same,Codeine Release,"1-Hour, 3M, 4O C. aging",56%
same,Codeine Release,"1-Hour, 3M, 25 C. aging",54%
same,Codeine Release,"1-Hour, 6M, 4O C. aging",54%
same,Codeine Release,"1-Hour, 6M, 25 C. aging",54%
same,Codeine Release,"1-Hour, 9M, 25 C. aging",54%
same,Codeine Release,[1],1-Hour 54%
same,Codeine Release,"1-Hour, Initial, HCl/NaCl/sodium dodecylsulfate medium, listed as codeine",54%
same,Codeine Release,"3-Hour, 1.5M, 4O C. aging",77%
same,Codeine Release,"3-Hour, 3M, 4O C. aging",77%
same,Codeine Release,"3-Hour, 3M, 25 C. aging",75%
same,Codeine Release,"3-Hour, 6M, 4O C. aging",77%
same,Codeine Release,"3-Hour, 6M, 25 C. aging",75%
same,Codeine Release,"3-Hour, 9M, 25 C. aging",75%
same,Codeine Release,"3-Hour, Initial",3-Hour 75%
same,Codeine Release,"3-Hour, Initial, listed as codeine",75%
same,Codeine Release,"6-Hour, 1.5M, 4O C. aging",88%
same,Codeine Release,"6-Hour, 3M, 4O C. aging",88%
same,Codeine Release,"6-Hour, 3M, 25 C. aging",86%
same,Codeine Release,"6-Hour, 6M, 4O C. aging",87%
same,Codeine Release,"6-Hour, 6M, 25 C. aging",85%
same,Codeine Release,"6-Hour, 9M, 25 C. aging",86%
same,Codeine Release,"6-Hour, Initial",6-Hour 86%
same,Codeine Release,"6-Hour, Initial, listed as codeine",86%
same,Codeine Release,"12-Hour, 1.5M, 4O C. aging",95%
same,Codeine Release,"12-Hour, 3M, 4O C. aging",95%
same,Codeine Release,"12-Hour, 3M, 25 C. aging",93%
same,Codeine Release,"12-Hour, 6M, 4O C. aging",94%
same,Codeine Release,"12-Hour, 6M, 25 C. aging",93%
same,Codeine Release,"12-Hour, 9M, 25 C. aging",94%
same,Codeine Release,"12-Hour, Initial",12-Hour 93%
same,Codeine Release,"12-Hour, Initial, listed as codeine",93%

# From patent US20080260845A1, “MULTIPLE ACTIVE DRUG RESIN CONJUGATE” (priority 2003, published 2008)
